Data: patent publication US20050138675A1, “Method for determining cardiotoxicity” (Pfizer Inc., priority 2003, published 2005)

System: cardiac ventricular tissue
Conditions: at least 2-fold relative to control
From the text: Male Sprague-Dawley rats weighing between 175-220 grams were used for all studies. Animals were purchased from Charles River Laboratories (Wilmington, Mass.) and allowed to acclimate for one week prior to use. All animals were given food and water ad libitum, and housed under a 12-hour light/12-hour dark cycle. The animals were housed in conventional plastic bottom cages (2 animals/cage) with corncob bedding. All dosing with test compounds was a single acute injection by the intraperitoneal route, in normal saline, with a 20×¾″ disposable needle attached to a 1 cc disposable syringe. These animals were euthanized by a 150 mg/kg intraperitoneal injection of Nembutal prior to collection of heart tissue.
Dose range-finding studies were completed to determine a xenobiotic dose that would produce signs of cardiotoxicity such as elevated serum troponins, creatine kinase isoenzymes, or histo-pathological tissue changes, without causing overt general toxicity. Comprehensive literature reviews were also used to select doses. […] Six or twenty-four hours later, animals were euthanized with a lethal intraperitoneal dose of Nembutal solution. Biopsy punches were used to remove approximately […] of ventricular tissue for subsequent RNA isolation and gene expression analysis. Total RNA was isolated from the samples using a Qiagen RNAeasy protocol (Valencia, Calif.). In this procedure, RNA is captured on a solid phase column, then washed with a series of solutions to purify the sample. In the last step, RNA is eluted from the column with RNAse free water. RNA quality and quantity was then checked with an optical density reading at 260/280 wavelengths, and an aliquot of RNA was run on an RNA denaturing gel. High quality RNA should have an OD 260/280 ratio of 2, and the denaturing gel should show two distinct ribosomal RNA bands.
Synthesis of double stranded cDNA from the total RNA isolated was the first step, which involves the incorporation of a T7-(dT)24 primer into the sequence, with subsequent second strand synthesis which yields a double stranded template for the in vitro transcription (IVT) reaction. The resulting cDNA was run in an IVT reaction using an Enzo BioArray High Yield RNA transcript labeling kit (Enzo Life Sciences, Inc. Farmingdale, N.Y.), during which a biotin label was incorporated into the complementary RNA (cRNA) sequence. This step also amplified the product by generating approximately 40 transcripts per cDNA substrate. After the IVT reaction, cRNA was fragmented by metallic fragmentation, and a small portion of the sample was run on a 1% agarose gel in order to visualize the fragmentation pattern. The range should be between 35 to 200 bases. Four samples from each group showing the highest purity and quality results were pooled for hybridization onto one Genechip to greatly reduce experimental costs. Genes of interest that are found through the use of GeneChip technology, will then be verified using real time PCR techniques on each individual sample.
Next, the cRNA was hybridized to the RG U34A GeneChip oligonucleotide array (Affymetrix Inc, Santa Clara, Calif.). An aliquot of the fragmented cRNA was mixed with control components, injected into the array, and the filled array was allowed to incubate at 45° C. for 16 hours in an Affymetrix oven, which rotates the samples continuously during incubation. The next morning, the array was taken from the oven and the sample was removed and frozen at −80° C. for possible future use. That is, in the event of a defective chip, the hybridization solution can be re-used. The array chamber was then filled with a wash buffer, and placed in an automated fluid exchange system. The fluidics station controls the washing and staining of the probe array with the fluorescently labeled streptavidin stain solution and an antibody solution. After the staining process was complete the chips were scanned by an Agilent GeneArray laser scanner (Agilent, Palo Alto, Calif.).

[1] = 6 hour after single i.p. dose (DIG 20, DOX 30, ISO 70, LPS 10 mg/kg)
[2] = 24 hour after single i.p. dose (DIG 20, DOX 30, ISO 70, LPS 10 mg/kg)

Substance: lipopolysaccharide [LPS]
- AA957003 intercellular calcium-binding protein expression, up or down [1]: up
- AI176456 metallothionein expression, up or down [1]: up
- J02722 heme oxygenase (hsp32) expression, up or down [1]: up
- X01118 gamma-rANP expression, up or down [1]: down
- X89225 L-like neutral amino acid transport protein expression, up or down [1]: up
- AA892801 EST expression, up or down [2]: up
- AA899106 cyclin D2 expression, up or down [2]: down
- AB005743 fatty acid transporter expression, up or down [2]: up
- AF016296 neuropilin expression, up or down [2]: down
- AI008852 EST expression, up or down [2]: up
- AI170776 GRB2 expression, up or down [2]: up
- AI638989 EST expression, up or down [2]: down
- D85183 SHPS-1 expression, up or down [2]: up
- M57276 leukocyte antigen MRC-OX44 expression, up or down [2]: up
- U14950 synapse-associated protein 97 expression, up or down [2]: up
- U68272 interferon gamma receptor expression, up or down [2]: up
- X52140 integrin alpha-1 expression, up or down [2]: down
- X71127 complement protein C1q beta chain expression, up or down [2]: up
